Measured values reported in ChEMBL document CHEMBL4346762, “Design, synthesis and anticancer activity of constrained sphingolipid-phenoxazine/phenothiazine hybrid constructs targeting protein phosphatase 2A” (Bioorg Med Chem Lett, 2019).

Experiments:
FL5.12 [1] = assay: (§1) Inhibition of protein phosphatase 2A in mouse FL5.12 cells assessed as induction of surface nutrient transporter loss by measuring downregulation of CD98 expression level at 40 uM preincubated with PP2A inhibitor calyculin A for 60 mins followed by compound addition and measured after 2 hrs by flow cytometric analysis relative to control; assay type: cell-based; design: scale not given: the % may be the effect or the level left
[2] = Inhibition of protein phosphatase 2A in mouse FL5.12 cells assessed as reduction in cell viability incubated for 48 hrs by propidium iodide staining based flow cytometric analysis; settings: FL5.12, 48 h
FL5.12 [3] = assay: as §1, with “10” for “40”; assay type: cell-based; design: scale not given: the % may be the effect or the level left
FL5.12 [4] = assay: Induction of vacuolation in mouse FL5.12 cells assessed as vacuolation score at 40 uM preincubated with PP2A inhibitor calyculin A for 60 mins followed by compound addition and measured after 2 hrs by fluorescence microscopic method; assay type: functional
FL5.12 [5] = assay: Induction of vacuolation in mouse FL5.12 cells assessed as vacuolation score at 10 uM preincubated with PP2A inhibitor calyculin A for 60 mins followed by compound addition and measured after 2 hrs by fluorescence microscopic method; assay type: functional
FL5.12 [6] = assay: as §1, with “2.5” for “40”; assay type: cell-based; design: scale not given: the % may be the effect or the level left
FL5.12 [7] = assay: Induction of vacuolation in mouse FL5.12 cells assessed as vacuolation score at 2.5 uM preincubated with PP2A inhibitor calyculin A for 60 mins followed by compound addition and measured after 2 hrs by fluorescence microscopic method; assay type: functional
Mus musculus = organism: Mus musculus; assay: Ratio of IC50 for SH-BC-893 to IC50 for test compound for inhibition of protein phosphatase 2A in mouse FL5.12 cells assessed as reduction in cell viability incubated for 48 hrs by propidium iodide staining based flow cytometric analysis

CCCCCCCCc1ccc([C@H]2CCN[C@@H]2COCCCCCN2c3ccccc3Sc3ccccc32)cc1.Cl
Activity (FL5.12 [1]): 29% | IC50 [2]: 7.5 µM | Activity (FL5.12 [3]): -8% | Activity (FL5.12 [4]): 42 | Activity (FL5.12 [5]): 18

CCCCCCCCc1ccc([C@H]2CCN[C@@H]2COCCCC(O)c2cccnc2)cc1.Cl (some centres not stated)
Activity (FL5.12 [6]): 24% | IC50 [2]: 2.4 µM | Activity (FL5.12 [7]): 8 | Activity (FL5.12 [3]): 51% | Activity (FL5.12 [5]): 17

CCCCCCCCc1ccc([C@H]2CCN[C@@H]2COCCCN2c3ccccc3Oc3ccccc32)cc1.Cl
Activity (FL5.12 [6]): 4% | IC50 [2]: 4.6 µM | Activity (FL5.12 [7]): 2 | Activity (FL5.12 [3]): 27% | Ratio IC50 (Mus musculus): 2 to 3 | Activity (FL5.12 [5]): 23

CCCCCCCCc1ccc([C@H]2CCN[C@@H]2COCCCCc2cccnc2)cc1.Cl
Activity (FL5.12 [6]): 40% | IC50 [2]: 2.1 µM | Activity (FL5.12 [7]): 12 | Activity (FL5.12 [3]): 64% | Activity (FL5.12 [5]): 11

CCCCCCCCc1ccc([C@H]2CCN[C@@H]2CO)cc1.Cl
Activity (FL5.12 [6]): 32% | IC50 [2]: 1.8 µM | Activity (FL5.12 [7]): 46 | Activity (FL5.12 [3]): 69% | Activity (FL5.12 [5]): 60

CCCCCCCCc1ccc([C@H]2CCN[C@@H]2COCCCC(O)c2cnc(OC)nc2OC)cc1.Cl (some centres not stated)
Activity (FL5.12 [6]): 10% | IC50 [2]: 2.7 µM | Activity (FL5.12 [7]): 8 | Activity (FL5.12 [3]): 60% | Activity (FL5.12 [5]): 15

OCCN1CCN(CCCN2c3ccccc3Sc3ccc(Cl)cc32)CC1 [PERPHENAZINE]
Activity (FL5.12 [6]): 19% | IC50 [2]: 4.8 µM | Activity (FL5.12 [7]): 1 | Activity (FL5.12 [3]): 58% | Activity (FL5.12 [5]): 3

CCCCCCCCc1ccc([C@H]2CCN[C@@H]2COCCCCN2c3ccccc3Oc3ccccc32)cc1.Cl
Activity (FL5.12 [6]): 5% | IC50 [2]: 5.8 µM | Activity (FL5.12 [7]): 7 | Activity (FL5.12 [3]): 15% | Ratio IC50 (Mus musculus): 2 to 3 | Activity (FL5.12 [5]): 15

CCCCCCCCc1ccc([C@H]2CCN[C@@H]2COCCCCCN2c3ccccc3Oc3ccccc32)cc1.Cl
Activity (FL5.12 [1]): 38% | IC50 [2]: 8.6 µM | Activity (FL5.12 [3]): -3% | Activity (FL5.12 [4]): 66 | Activity (FL5.12 [5]): 16

O=S(=O)(N[C@@H]1CCC[C@H](N2c3ccccc3Oc3ccccc32)[C@H]1O)c1ccc(OC(F)(F)F)cc1
Activity (FL5.12 [1]): 31% | IC50 [2]: 15.2 µM | Activity (FL5.12 [3]): 7% | Activity (FL5.12 [4]): 11 | Activity (FL5.12 [5]): 0
